From paper PMC10575921 (Nature Communications, 2023)
“And” between values parts separate entries of the source, which are not always exact repeats. Equal values may be shown once.

Target: SARS-CoV-2 3CL^pro C145G (Severe acute respiratory syndrome coronavirus 2, UniProt P0DTD1, C3408G)
Assay type: binding

Row | Structure (SMILES) | -TΔS
1 | CC(C)(C)NC(=O)N[C@H](C(=O)N1C[C@H]2[C@@H]([C@H]1C(=O)N[C@H](C#N)C[C@@H]1CCNC1=O)C2(C)C)C(C)(C)C [compound 2] | -5.978 ± 0.1 kcal/mol and -5.978 kcal/mol
2 | CC(C)(C)[C@H](NC(=O)C1(F)CC1)C(=O)N1CC2(C[C@H]1C(=O)N[C@H](C#N)C[C@@H]1CCNC1=O)SCCS2 [compound 10] | -2.18 ± 0.562 kcal/mol and -2.18 kcal/mol
3 | CC(C)(C)NC(=O)N[C@H](C(=O)N1CC2(C[C@H]1C(=O)N[C@H](C#N)C[C@@H]1CCNC1=O)SCCS2)C(C)(C)C [compound 7] | -4.818 ± 0.268 kcal/mol and -4.818 kcal/mol
4 | CC(C)(C)[C@H](NS(C)(=O)=O)C(=O)N1CC2(C[C@H]1C(=O)N[C@H](C#N)C[C@@H]1CCNC1=O)SCCS2 [compound 11] | -3.559 ± 0.332 kcal/mol and -3.559 kcal/mol
5 | CC(C)(C)[C@H](NS(=O)(=O)C1CC1)C(=O)N1CC2(C[C@H]1C(=O)N[C@H](C#N)C[C@@H]1CCNC1=O)SCCS2 [compound 12] | -1.19 ± 0.325 kcal/mol and -1.19 kcal/mol
